Source: ChEMBL document CHEMBL3044812, “QSAR analysis of Mur B inhibitors with antibacterial properties discussing role of physico-chemical parameters” (Med Chem Res, 2011)

assay: Inhibition of Escherichia coli murB-mediated eduction of enolpyruvyl uridine diphosphate N-acetylglucosamine to uridine diphosphate N-acetyl muramic acid

SMILES	pIC50
N#Cc1ccc(C(=O)c2c(O)n(-c3ccc(Cl)cc3)n(-c3ccc(Cl)cc3)c2=O)cc1	4.882
O=C(Nc1ccc(C(F)(F)F)cc1)c1c(O)n(-c2cccc(Cl)c2)n(-c2cccc(Cl)c2)c1=O	5.061
O=C(c1c(O)n(-c2ccc(Cl)cc2)n(-c2ccc(Cl)cc2)c1=O)C1CCCCC1	4.62
O=C(CCc1ccccc1)c1c(O)n(-c2ccc(Cl)cc2)n(-c2ccc(Cl)cc2)c1=O	5.018
O=C(Nc1ccc(Br)cc1)c1c(O)n(-c2ccccc2)n(-c2ccccc2)c1=O	4.377
O=C(Nc1ccc(Cl)cc1)c1c(O)n(-c2ccc(Cl)cc2)n(-c2ccc(Cl)cc2)c1=O	4.959
O=C(Nc1ccc(Cl)c(Cl)c1)c1c(O)n(-c2ccc(Cl)c(Cl)c2)n(-c2ccc(Cl)c(Cl)c2)c1=O	5.319
O=C(c1cccs1)c1c(O)n(-c2ccc(Cl)cc2)n(-c2ccc(Cl)cc2)c1=O	5.237
O=C(Nc1ccccc1)c1c(O)n(-c2ccccc2)n(-c2ccccc2)c1=O	4.268
O=C(Nc1ccc(Cl)c(Cl)c1)c1c(O)n(-c2ccc(Cl)cc2)n(-c2ccc(Cl)cc2)c1=O	4.886
O=C(c1ccc(O)cc1)c1c(O)n(-c2ccc(Cl)cc2)n(-c2ccc(Cl)cc2)c1=O	4.66
O=C(c1ccccc1)c1c(O)n(-c2ccc(Cl)cc2)n(-c2ccc(Cl)cc2)c1=O	5.009
CCCCOc1ccc(C(=O)c2c(O)n(-c3ccc(Cl)cc3)n(-c3ccc(Cl)cc3)c2=O)cc1	5.347
O=C(c1ccc(C(F)(F)F)cc1)c1c(O)n(-c2ccc(Cl)cc2)n(-c2ccc(Cl)cc2)c1=O	4.824
O=C(c1ccccc1Cl)c1c(O)n(-c2ccc(Cl)cc2)n(-c2ccc(Cl)cc2)c1=O	4.914
O=C(Nc1ccc(Cl)cc1)c1c(O)n(-c2ccccc2)n(-c2ccccc2)c1=O	4.268

Other lines, results leading:

pIC50	SMILES
5.268	O=C(c1ccc(OC(F)(F)F)cc1)c1c(O)n(-c2ccc(Cl)cc2)n(-c2ccc(Cl)cc2)c1=O
5.066	O=C(Nc1ccc(Cl)cc1)c1c(O)n(-c2cccc(Cl)c2)n(-c2cccc(Cl)c2)c1=O
5.319	Cc1ccc(NC(=O)c2c(O)n(-c3ccc(Cl)c(Cl)c3)n(-c3ccc(Cl)c(Cl)c3)c2=O)cc1
4.796	COc1ccc(C(=O)c2c(O)n(-c3ccc(Cl)cc3)n(-c3ccc(Cl)cc3)c2=O)cc1
4.863	O=C(c1ccc(Cl)cc1)c1c(O)n(-c2ccc(Cl)cc2)n(-c2ccc(Cl)cc2)c1=O
4.398	COc1ccc(CC(=O)c2c(O)n(-c3ccc(Cl)cc3)n(-c3ccc(Cl)cc3)c2=O)cc1
5	COc1ccc(NC(=O)c2c(O)n(-c3ccc(Cl)cc3)n(-c3ccc(Cl)cc3)c2=O)cc1
5.215	O=C(c1ccc(-c2ccccc2)cc1)c1c(O)n(-c2ccc(Cl)cc2)n(-c2ccc(Cl)cc2)c1=O
5.26	O=C(c1cccc(C(F)(F)F)c1)c1c(O)n(-c2ccc(Cl)cc2)n(-c2ccc(Cl)cc2)c1=O
5.229	O=C(c1cccc(Cl)c1)c1c(O)n(-c2ccc(Cl)cc2)n(-c2ccc(Cl)cc2)c1=O
4.754	CCOC(=O)c1cccc(C(=O)c2c(O)n(-c3ccc(Cl)cc3)n(-c3ccc(Cl)cc3)c2=O)c1
5.252	CC(C(=O)c1c(O)n(-c2ccc(Cl)cc2)n(-c2ccc(Cl)cc2)c1=O)c1ccc(Br)cc1 (stereo not drawn)
